Laboratory results as given in patent publication US20200071361A1, “ENGINEERED ANTIMICROBIAL AMPHIPHILIC PEPTIDES AND METHODS OF USE” (priority 2017, published 2020).
Values after ≈ are worked out from the molar mass of the structure shown. Blank lines part the entries; values can stand above or below the compound they belong to.

Legend:
[1] = tested on: Staphylococcus aureus isolates (n = 104); assay: Broth microdilution MIC, clinical isolate panel; format: cell-based; conditions: Staphylococcus aureus (n = 104), all methicillin-resistant
Description: (§1) Comparator antibiotics were supplied by Micromyx, and stock solutions were prepared on the first day of testing using solvents recommended by CLSI (1). Stock solutions of all compounds were made at 40× the final testing concentration and stored at −80° C. prior to testing. Information regarding compound source, catalog and lot number, testing concentrations and drug diluent for the comparators and test agent are detailed below in Table 3.
(§2) The test organisms evaluated in this study consisted of clinical isolates from the Micromyx Repository and reference isolates from the American Type Culture Collection (ATCC; Manassas, Va.). The clinical isolates were obtained from USA hospitals. Upon initial receipt at Micromyx, the organisms were sub-cultured onto an appropriate agar medium. Following incubation, colonies were harvested from these plates and cell suspensions prepared and frozen at −80° C. with a cryoprotectant. Prior to testing, the isolates were streaked from frozen vials onto Trypticase Soy Agar with 5% sheep blood (Becton Dickenson [BD]; Sparks, Md.; Lot Nos. 7173618, 7166759, 7208688, 72144895, 7228505 and Remel Lenexa, Kans. Lot No. 212574). Plates were incubated at 35° C. overnight.
(§3) Mueller Hinton II broth (MHB II; BD; Lot Nos. 6258541 and 7143896) was used for MIC testing of aerobic organisms.
(§4) MIC values were determined using a broth microdilution procedure described by CLSI (1, 3). Automated liquid handlers (Multidrop 384, Labsystems, Helsinki, Finland; Biomek 2000 and Biomek FX, Beckman Coulter, Fullerton Calif.) were used to conduct serial dilutions and liquid transfers.
(§5) To prepare the drug mother plates, which would provide the serial drug dilutions for the replicate daughter plates, the wells of columns 2-12 of standard 96-well microdilution plates (Costar 3795) were filled with 150 μl of the designated diluent for each row of drug. The test articles and comparator compounds (300 μl at 40× the highest concentration to be tested) were dispensed into the appropriate wells in column 1. The Biomek 2000 was then used to make 2-fold serial dilutions in the mother plates from column 1 through column 11. The wells of Column 12 contained no drug and served as the organism growth control wells for the assay.
(§6) The daughter plates were loaded with 185 μL per well of MHB II using the Multidrop 384. The daughter plates were completed on the Biomek FX instrument which transferred 5 µL of drug solution from each well of a mother plate to the corresponding well of each daughter plate in a single step. A standardized inoculum of each test organism was prepared per CLSI methods (1). The inoculum for each organism was dispensed into sterile reservoirs divided by length (Beckman Coulter), and the Biomek 2000 was used to inoculate the plates. Daughter plates were placed on the Biomek 2000 work surface in reverse orientation so that inoculation took place from low to high drug concentration.
(§7) Plates were stacked 3-4 high, covered with a lid on the top plate, placed in plastic bags, and incubated at 35° C. for 16 to 20 hrs. Following incubation, the microplates were removed from the incubator and viewed from the bottom using a plate viewer. […] The MIC was read and recorded as the lowest concentration of drug that inhibited visible growth of the organism.
(§8) Clinical breakpoints to determine percent resistance within a given organism group were obtained from CLSI (3), with the exception of colistin for K. pneumoniae, Enterobacter spp., and E. coli, which are only available from EUCAST.

[2] = tested on: Enterococcus faecium isolates (n = 104); assay: Broth microdilution MIC, clinical isolate panel; format: cell-based; conditions: Enterococcus faecium (n = 104)
Description: as §1, §2, §3, §4, §5, §6, §7, §8

[3] = tested on: Enterobacter spp. isolates (n = 102); assay: Broth microdilution MIC, clinical isolate panel; format: cell-based, Enterobacter aerogenes and E. cloacae; conditions: Enterobacter spp. (n = 102)
Description: as §1, §2, §3, §4, §5
The daughter plates were loaded with 185 μL per well of MHB II using the Multidrop 384. The daughter plates were completed on the Biomek FX instrument which transferred 5 µL of drug solution from each well of a mother plate to the corresponding well of each daughter plate in a single step. […]
Plates were stacked 3-4 high, covered with a lid on the top plate, placed in plastic bags, and incubated at 35° C. for 16 to 20 hrs. […] The MIC was read and recorded as the lowest concentration of drug that inhibited visible growth of the organism. […]

[4] = tested on: Pseudomonas aeruginosa isolates (n = 109); assay: Broth microdilution MIC, clinical isolate panel; format: cell-based; conditions: Pseudomonas aeruginosa (n = 109)
Description: as §1, §2, §3, §4, §5, §6, §7, §8

[5] = tested on: Acinetobacter spp. isolates (n = 104); assay: Broth microdilution MIC, clinical isolate panel; format: cell-based; conditions: Acinetobacter spp. (n = 104)
Description: as §1, §2, §3, §4, §5, §6, §7, §8

[6] = tested on: Escherichia coli isolates (n = 101); assay: Broth microdilution MIC, clinical isolate panel; format: cell-based; conditions: Escherichia coli (n = 101)
Description: as §1, §2, §3, §4, §5, §6, §7, §8

[7] = tested on: Klebsiella pneumoniae isolates (n = 101); assay: Broth microdilution MIC, clinical isolate panel; format: cell-based; conditions: Klebsiella pneumoniae (n = 101)
Description: as §1, §2, §3, §4, §5, §6, §7, §8

[8] = tested on: Acinetobacter baumannii ATCC BAA-1797 (MDR); assay: Broth microdilution MIC (Table 2); format: cell-based
Description: (§9) Each peptide was formulated in PBS buffer prior to testing. Peptides of SEQ ID NO:5 and SEQ ID NO:8 were brought up in 100% DMSO with 0.002% polysorbate-80 at 1.28 mg/mL (40× the highest final test concentration of 32 mcg/mL). Final test concentration of DMSO was 2.5% in the assay at the first dilution for those two compounds.
(§10) Mueller Hinton II broth (MHB II; BD; Lot Nos. 6258541 and 7143896) was used for MIC testing of aerobic organisms. 0.002% polysorbate 80 (P80) was added to the test medium.
as §4
as §5, with “serial peptide” for “serial drug”, “of peptide.” for “of drug.”
as §6, with “5 uL” for “5 µL”, “of peptide” for “of drug”, “CLSI methods.” for “CLSI methods (1).”, “concentration. The plates were then inoculated with 10 μL of the inoculum resulting in a final cell density of approximately 5×10^5 CFU/mL, per well.” for “concentration.”
as §7, with “peptide” for “drug”

[9] = tested on: Acinetobacter baumannii ATCC 19606 (non-MDR); assay: Broth microdilution MIC (Table 2); format: cell-based
Description: as §9, §10, §4
as §5, with “serial peptide” for “serial drug”, “of peptide.” for “of drug.”
as §6, with “5 uL” for “5 µL”, “of peptide” for “of drug”, “CLSI methods.” for “CLSI methods (1).”, “concentration. The plates were then inoculated with 10 μL of the inoculum resulting in a final cell density of approximately 5×10^5 CFU/mL, per well.” for “concentration.”
as §7, with “peptide” for “drug”

[10] = tested on: Streptococcus pneumoniae ATCC 49619 (QC); assay: Broth microdilution MIC (Table 2); format: cell-based
Description: as §9, §10, §4
as §5, with “serial peptide” for “serial drug”, “of peptide.” for “of drug.”
as §6, with “5 uL” for “5 µL”, “of peptide” for “of drug”, “CLSI methods.” for “CLSI methods (1).”, “concentration. The plates were then inoculated with 10 μL of the inoculum resulting in a final cell density of approximately 5×10^5 CFU/mL, per well.” for “concentration.”
as §7, with “peptide” for “drug”

[11] = tested on: Streptococcus agalactiae ATCC 13813; assay: Broth microdilution MIC (Table 2); format: cell-based; conditions: ATCC13813
Description: as §9, §10, §4
as §5, with “serial peptide” for “serial drug”, “of peptide.” for “of drug.”
as §6, with “5 uL” for “5 µL”, “of peptide” for “of drug”, “CLSI methods.” for “CLSI methods (1).”, “concentration. The plates were then inoculated with 10 μL of the inoculum resulting in a final cell density of approximately 5×10^5 CFU/mL, per well.” for “concentration.”
as §7, with “peptide” for “drug”

[12] = tested on: Streptococcus pyogenes ATCC 49399; assay: Broth microdilution MIC (Table 2); format: cell-based
Description: as §9, §10, §4
as §5, with “serial peptide” for “serial drug”, “of peptide.” for “of drug.”
as §6, with “5 uL” for “5 µL”, “of peptide” for “of drug”, “CLSI methods.” for “CLSI methods (1).”, “concentration. The plates were then inoculated with 10 μL of the inoculum resulting in a final cell density of approximately 5×10^5 CFU/mL, per well.” for “concentration.”
as §7, with “peptide” for “drug”

[13] = tested on: Pseudomonas aeruginosa ATCC 27853 (non-MDR; QC); assay: Broth microdilution MIC (Table 2); format: cell-based
Description: as §9, §10, §4
as §5, with “serial peptide” for “serial drug”, “of peptide.” for “of drug.”
as §6, with “5 uL” for “5 µL”, “of peptide” for “of drug”, “CLSI methods.” for “CLSI methods (1).”, “concentration. The plates were then inoculated with 10 μL of the inoculum resulting in a final cell density of approximately 5×10^5 CFU/mL, per well.” for “concentration.”
as §7, with “peptide” for “drug”

[14] = tested on: Enterococcus faecalis ATCC 700802 (V583 VRE); assay: Broth microdilution MIC (Table 2); format: cell-based
Description: as §9, §10, §4
as §5, with “serial peptide” for “serial drug”, “of peptide.” for “of drug.”
as §6, with “5 uL” for “5 µL”, “of peptide” for “of drug”, “CLSI methods.” for “CLSI methods (1).”, “concentration. The plates were then inoculated with 10 μL of the inoculum resulting in a final cell density of approximately 5×10^5 CFU/mL, per well.” for “concentration.”
as §7, with “peptide” for “drug”

[15] = tested on: Staphylococcus aureus ATCC 29213 (MSSA; QC); assay: Broth microdilution MIC (Table 2); format: cell-based
Description: as §9, §10, §4
as §5, with “serial peptide” for “serial drug”, “of peptide.” for “of drug.”
as §6, with “5 uL” for “5 µL”, “of peptide” for “of drug”, “CLSI methods.” for “CLSI methods (1).”, “concentration. The plates were then inoculated with 10 μL of the inoculum resulting in a final cell density of approximately 5×10^5 CFU/mL, per well.” for “concentration.”
as §7, with “peptide” for “drug”

[16] = tested on: Enterococcus faecalis ATCC 29212 (VSE; QC); assay: Broth microdilution MIC (Table 2); format: cell-based
Description: as §9, §10, §4
as §5, with “serial peptide” for “serial drug”, “of peptide.” for “of drug.”
as §6, with “5 uL” for “5 µL”, “of peptide” for “of drug”, “CLSI methods.” for “CLSI methods (1).”, “concentration. The plates were then inoculated with 10 μL of the inoculum resulting in a final cell density of approximately 5×10^5 CFU/mL, per well.” for “concentration.”
as §7, with “peptide” for “drug”

[17] = tested on: Staphylococcus aureus ATCC 43300 (MRSA); assay: Broth microdilution MIC (Table 2); format: cell-based
Description: as §9, §10, §4
as §5, with “serial peptide” for “serial drug”, “of peptide.” for “of drug.”
as §6, with “5 uL” for “5 µL”, “of peptide” for “of drug”, “CLSI methods.” for “CLSI methods (1).”, “concentration. The plates were then inoculated with 10 μL of the inoculum resulting in a final cell density of approximately 5×10^5 CFU/mL, per well.” for “concentration.”
as §7, with “peptide” for “drug”

[18] = tested on: Staphylococcus aureus NRS382 (USA100; HA-MRSA); assay: Broth microdilution MIC (Table 2); format: cell-based
Description: as §9, §10, §4
as §5, with “serial peptide” for “serial drug”, “of peptide.” for “of drug.”
as §6, with “5 uL” for “5 µL”, “of peptide” for “of drug”, “CLSI methods.” for “CLSI methods (1).”, “concentration. The plates were then inoculated with 10 μL of the inoculum resulting in a final cell density of approximately 5×10^5 CFU/mL, per well.” for “concentration.”
as §7, with “peptide” for “drug”

[19] = tested on: Enterococcus faecium ATCC 51559 (VRE); assay: Broth microdilution MIC (Table 2); format: cell-based
Description: as §9, §10, §4
as §5, with “serial peptide” for “serial drug”, “of peptide.” for “of drug.”
as §6, with “5 uL” for “5 µL”, “of peptide” for “of drug”, “CLSI methods.” for “CLSI methods (1).”, “concentration. The plates were then inoculated with 10 μL of the inoculum resulting in a final cell density of approximately 5×10^5 CFU/mL, per well.” for “concentration.”
as §7, with “peptide” for “drug”

MIC50 [1]: 0.5 µg/mL (≈ 0.309 µM)
MIC90 [1]: 1 µg/mL (≈ 0.617 µM)
MIC range [1]: 0.25 to 4 µg/mL
MIC ([1]; read-out: Mode (MIC)): 0.5 µg/mL (≈ 0.309 µM)
MIC50 [2]: 4 µg/mL (≈ 2.47 µM)
MIC90 [2]: 8 µg/mL (≈ 4.94 µM)
MIC ([2]; read-out: Mode (MIC)): 2 µg/mL (≈ 1.23 µM)
Compound: CCCCCCCCCC(=O)N[C@@H](Cc1c[nH]c2ccccc12)C(=O)N[C@H](CC(N)=O)C(=O)N[C@@H](CC(=O)O)C(=O)N[C@@H]1C(=O)NCC(=O)N[C@@H](CCCN)C(=O)N[C@@H](CC(=O)O)C(=O)N[C@H](C)C(=O)N[C@@H](CC(=O)O)C(=O)NCC(=O)N[C@H](CO)C(=O)N[C@@H]([C@H](C)CC(=O)O)C(=O)N[C@@H](CC(=O)c2ccccc2N)C(=O)O[C@@H]1C [Daptomycin]

Compound: Colistin
% R (percent of isolates resistant, clinical breakpoints) [3]: 5.8%
% R (percent of isolates resistant, clinical breakpoints) [4]: 7.3%
% R (percent of isolates resistant, clinical breakpoints) [5]: 20.2%
% R (percent of isolates resistant, clinical breakpoints) [6]: 0%
% R (percent of isolates resistant, clinical breakpoints) [7]: 27.7%
MIC [8]: 0.25 µg/mL
MIC [9]: 0.25 µg/mL
MIC [10]: >32 µg/mL
MIC [11]: >32 µg/mL
MIC [12]: >32 µg/mL
MIC [13]: 0.25 µg/mL
MIC [14]: >32 µg/mL
MIC [15]: >32 µg/mL
MIC [16]: >32 µg/mL
MIC [17]: >32 µg/mL
MIC [18]: >32 µg/mL
MIC [19]: >32 µg/mL
